Literature values as cited in patent US10676418B2, “Method for producing microparticles from pressurized and heated starting material solution” (M. TECHNIQUE CO., LTD., priority 2016, dated 2020).

Conditions: 25° C.; normal temperature and pressure

solubility in ethanol: about 0.5 % by weight
SMILES: COc1cc(/C=C/C(=O)CC(=O)/C=C/c2ccc(O)c(OC)c2)ccc1O [curcumin]
